According to ChEMBL document CHEMBL1201862, “PubChem BioAssay data set” (2004):
Several values for one entry are separate records, joined by “and”; a condition that tells them apart may be missing. Equal values may be shown once. Activity calls are given as the source filed them.

What was measured:
Cytochrome P450 3A4 = Cytochrome P450 3A4 (Homo sapiens, UniProt P08684);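 also: CYP3A4 tested as one member of a cytochrome P450 panel screen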
Cytochrome P450 2D6 = Cytochrome P450 2D6 (Homo sapiens, UniProt P10635);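 also: CYP2D6 member of a cytochrome P450 panel assay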
Chain of Cytochrome P450 2D6 (P10635 whole entry): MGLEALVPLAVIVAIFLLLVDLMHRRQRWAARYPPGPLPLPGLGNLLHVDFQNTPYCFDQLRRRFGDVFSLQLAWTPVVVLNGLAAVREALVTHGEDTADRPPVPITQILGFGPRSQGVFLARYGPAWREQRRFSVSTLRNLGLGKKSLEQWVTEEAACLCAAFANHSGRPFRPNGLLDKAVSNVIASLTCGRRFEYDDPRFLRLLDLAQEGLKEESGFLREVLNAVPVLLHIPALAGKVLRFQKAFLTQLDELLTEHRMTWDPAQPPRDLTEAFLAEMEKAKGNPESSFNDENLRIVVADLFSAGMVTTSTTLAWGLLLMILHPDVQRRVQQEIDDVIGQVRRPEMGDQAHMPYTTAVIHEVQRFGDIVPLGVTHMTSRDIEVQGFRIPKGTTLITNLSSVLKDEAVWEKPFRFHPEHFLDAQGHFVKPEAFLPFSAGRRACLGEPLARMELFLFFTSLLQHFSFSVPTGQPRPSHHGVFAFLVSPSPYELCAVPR

Protein skinhead-1 = biological target: T1, Protein skinhead-1 (Caenorhabditis elegans, UniProt P34707); assay type: functional
T1 sequence (P34707 whole entry): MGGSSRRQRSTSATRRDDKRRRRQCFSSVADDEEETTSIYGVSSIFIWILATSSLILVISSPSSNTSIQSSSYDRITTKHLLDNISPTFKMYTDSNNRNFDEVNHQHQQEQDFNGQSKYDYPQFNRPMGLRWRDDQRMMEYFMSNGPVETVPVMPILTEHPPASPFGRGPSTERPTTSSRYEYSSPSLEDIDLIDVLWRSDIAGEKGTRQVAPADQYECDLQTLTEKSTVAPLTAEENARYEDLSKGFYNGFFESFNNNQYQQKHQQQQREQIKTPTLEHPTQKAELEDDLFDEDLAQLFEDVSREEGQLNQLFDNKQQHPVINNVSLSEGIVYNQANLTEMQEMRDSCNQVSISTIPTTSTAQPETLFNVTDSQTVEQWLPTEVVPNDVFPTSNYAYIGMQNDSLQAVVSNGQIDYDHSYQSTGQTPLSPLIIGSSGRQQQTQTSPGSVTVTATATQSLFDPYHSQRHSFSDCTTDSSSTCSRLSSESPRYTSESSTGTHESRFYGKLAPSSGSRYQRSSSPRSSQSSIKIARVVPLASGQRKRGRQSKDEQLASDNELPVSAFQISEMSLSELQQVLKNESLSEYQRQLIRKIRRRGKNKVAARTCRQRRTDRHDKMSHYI

[1] = biological target: T2, Heat shock factor protein 1 (Mus musculus, UniProt P38532); experiment: decrease of HSF1-responsive luciferase luminescence – cell-based, NIH3T3, dose retest, confirmation (AID 2382); assay type: functional;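 also: NIH3T3 fibroblasts with HSF1-driven luciferase reporter stressed by proteasome inhibitor MG132; luminescence from HSF1-driven luciferase expression after 8 hours of MG132 stress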
T2 sequence (P38532 whole entry): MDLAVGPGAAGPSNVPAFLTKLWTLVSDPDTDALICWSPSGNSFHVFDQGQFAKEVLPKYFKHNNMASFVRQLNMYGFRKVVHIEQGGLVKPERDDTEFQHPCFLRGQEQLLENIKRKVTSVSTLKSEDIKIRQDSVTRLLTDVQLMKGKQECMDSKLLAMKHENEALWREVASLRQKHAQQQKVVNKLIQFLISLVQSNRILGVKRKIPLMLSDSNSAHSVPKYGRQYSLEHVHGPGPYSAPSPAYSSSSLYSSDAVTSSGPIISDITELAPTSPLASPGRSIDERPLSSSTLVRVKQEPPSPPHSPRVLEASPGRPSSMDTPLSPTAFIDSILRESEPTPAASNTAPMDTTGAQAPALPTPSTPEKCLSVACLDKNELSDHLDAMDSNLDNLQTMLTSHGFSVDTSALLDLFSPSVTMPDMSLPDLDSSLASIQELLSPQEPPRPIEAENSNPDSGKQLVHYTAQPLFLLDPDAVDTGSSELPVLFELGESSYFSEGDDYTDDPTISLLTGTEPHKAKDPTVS

Cytochrome P450 1A2 = biological target: T3, Cytochrome P450 1A2 (Homo sapiens, UniProt P05177);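 also: PubChem cytochrome P450 panel assay, CYP1A2 panel member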
T3 sequence (P05177 whole entry): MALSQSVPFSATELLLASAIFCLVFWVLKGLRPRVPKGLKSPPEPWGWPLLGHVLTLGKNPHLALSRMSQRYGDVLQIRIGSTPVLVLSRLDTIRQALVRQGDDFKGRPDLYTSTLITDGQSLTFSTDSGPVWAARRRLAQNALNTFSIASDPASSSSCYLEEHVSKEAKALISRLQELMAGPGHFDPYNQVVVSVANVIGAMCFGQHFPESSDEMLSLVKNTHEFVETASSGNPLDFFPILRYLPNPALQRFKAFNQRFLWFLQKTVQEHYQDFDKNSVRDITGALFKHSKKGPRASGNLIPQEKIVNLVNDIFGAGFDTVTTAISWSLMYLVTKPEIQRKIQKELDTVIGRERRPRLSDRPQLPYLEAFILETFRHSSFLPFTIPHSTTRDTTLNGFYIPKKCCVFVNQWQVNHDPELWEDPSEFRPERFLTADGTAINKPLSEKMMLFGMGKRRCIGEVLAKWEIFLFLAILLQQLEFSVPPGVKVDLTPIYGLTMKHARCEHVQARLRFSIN

[2] = Luminescence Cell-Based Dose Response HTS to Identify Inhibitors of 5'UTR Stem-Loop Driven Prion Protein mRNA Translation in H4 Neuroglioblastoma Cells. [Related pubchem assays: 1827 (Project Summary), 1813 (Primary HTS)]; assay type: functional
[3] = alpha-synuclein stem-loop luciferase translation blockers – H4 neuroglioma cells, luminescence, confirmation (AID 1988); assay type: functional, cell-based
[4] = luciferase reporter signal suppression in cells – H4 neuroglioma cells, luminescence, dose response (AID 1990); assay type: functional, cell-based
Cytochrome P450 2C9 = Cytochrome P450 2C9 (Homo sapiens, UniProt P11712)
Chain of Cytochrome P450 2C9 (P11712 whole entry): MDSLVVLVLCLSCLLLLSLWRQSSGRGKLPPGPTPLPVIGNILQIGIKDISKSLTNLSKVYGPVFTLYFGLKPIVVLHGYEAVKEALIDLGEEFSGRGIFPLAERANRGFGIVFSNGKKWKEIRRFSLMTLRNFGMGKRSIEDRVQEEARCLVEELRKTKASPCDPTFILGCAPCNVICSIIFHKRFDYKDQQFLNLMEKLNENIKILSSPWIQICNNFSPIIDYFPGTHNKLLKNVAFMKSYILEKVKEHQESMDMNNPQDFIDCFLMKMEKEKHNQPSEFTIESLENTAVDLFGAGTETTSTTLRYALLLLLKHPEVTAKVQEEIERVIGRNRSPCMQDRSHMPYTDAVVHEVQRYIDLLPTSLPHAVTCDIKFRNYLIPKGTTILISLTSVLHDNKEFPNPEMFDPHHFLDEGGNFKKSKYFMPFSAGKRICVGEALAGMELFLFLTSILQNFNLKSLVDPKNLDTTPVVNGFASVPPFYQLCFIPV

Cytochrome P450 2C19 = Cytochrome P450 2C19 (Homo sapiens, UniProt P33261); experiment: Cytochrome panel assay with activity outcomes. Panel member name: p450-cyp2c19 Compounds with AC50 equal or less than 10 uM are considered active; assay type: functional
Chain of Cytochrome P450 2C19 (P33261 whole entry): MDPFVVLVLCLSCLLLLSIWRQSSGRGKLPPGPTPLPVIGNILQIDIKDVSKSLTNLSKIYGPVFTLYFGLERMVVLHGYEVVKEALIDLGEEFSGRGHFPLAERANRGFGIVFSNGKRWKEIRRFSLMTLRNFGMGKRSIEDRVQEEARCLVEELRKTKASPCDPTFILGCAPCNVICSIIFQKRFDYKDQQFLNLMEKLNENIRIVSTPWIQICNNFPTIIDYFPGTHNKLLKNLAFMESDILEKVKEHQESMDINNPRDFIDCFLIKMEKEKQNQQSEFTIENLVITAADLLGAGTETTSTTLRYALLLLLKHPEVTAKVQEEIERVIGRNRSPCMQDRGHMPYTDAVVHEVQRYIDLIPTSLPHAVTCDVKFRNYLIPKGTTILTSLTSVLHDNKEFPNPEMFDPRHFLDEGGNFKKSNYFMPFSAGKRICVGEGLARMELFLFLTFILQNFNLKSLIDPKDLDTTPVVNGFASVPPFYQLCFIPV

[5] = NIH-3T3 fibroblast cytotoxicity, dose response, cytotoxicity control, cell-based, fluorescence, Alamar Blue, secondary assay (AID 2327); assay type: functional;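 also: NIH-3T3 mouse fibroblasts cultured with fluconazole at 8 µg/mL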

Chain of Cytochrome P450 3A4 (P08684 whole entry): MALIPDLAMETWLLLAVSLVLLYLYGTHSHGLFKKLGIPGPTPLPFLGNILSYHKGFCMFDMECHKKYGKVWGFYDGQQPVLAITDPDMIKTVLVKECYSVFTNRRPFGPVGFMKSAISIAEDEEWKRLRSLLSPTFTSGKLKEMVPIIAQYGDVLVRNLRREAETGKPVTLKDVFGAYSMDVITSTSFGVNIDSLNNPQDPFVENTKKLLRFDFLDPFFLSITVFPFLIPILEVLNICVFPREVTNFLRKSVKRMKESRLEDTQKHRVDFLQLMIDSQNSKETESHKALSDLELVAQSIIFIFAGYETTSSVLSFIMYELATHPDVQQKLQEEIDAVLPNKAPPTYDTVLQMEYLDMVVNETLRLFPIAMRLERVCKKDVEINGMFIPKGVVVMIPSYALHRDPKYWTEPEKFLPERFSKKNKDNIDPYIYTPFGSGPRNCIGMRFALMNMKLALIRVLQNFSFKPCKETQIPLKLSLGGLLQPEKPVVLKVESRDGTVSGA

C[C@H](N)C1CCC(C(=O)Nc2ccncc2)CC1 (stereo partly specified)
AC50 (Cytochrome P450 3A4): 15.8 µM (inconclusive) | AC50 (Cytochrome P450 2D6): 15.8 µM (inconclusive)

CCc1nnc(NC(=O)CSc2nnc(COc3cccc(C)c3)o2)s1
IC50 (Protein skinhead-1): > 100 µM (inactive)

O=C(O)c1cc(-c2cccc3ccccc23)nc2ccccc12
IC50 (Protein skinhead-1): > 100 µM (inactive) | EC50 [1]: > 195 µM (not active)

CCN(CC)S(=O)(=O)c1cccc(-c2nnc(SCC(=O)c3cc(C)n(C4CC4)c3C)o2)c1
IC50 (Protein skinhead-1): > 100 µM (inactive)

CCn1c(SCC(=O)Nc2ccc(NC(=O)c3cccs3)cc2)nnc1-c1cccnc1
IC50 (Protein skinhead-1): > 100 µM (inactive)

O=C(CSc1c[nH]c2ccccc12)N1CCOCC1
AC50 (Cytochrome P450 1A2): 17.8 µM (inconclusive)

COc1cccc(Nc2ncc3nc(-c4cn(C)c5ccccc45)c(=O)n(CCC#N)c3n2)c1
AC50 (Cytochrome P450 3A4): 1.58 µM (inconclusive) | AC50 (Cytochrome P450 1A2): 20 µM (inconclusive)

c1ccc(CN2CC[C@@]3(CCCNC3)C2)cc1
AC50 (Cytochrome P450 3A4): 10 µM (inconclusive) | AC50 (Cytochrome P450 2D6): 15.8 µM (inconclusive)

c1ccc(CSc2nnc(-c3cccs3)o2)cc1
IC50 (Protein skinhead-1): 30.2 µM (active)

Cc1ccc(-c2[nH]ncc2/C=C(\C#N)C(=O)NC2CCCCC2)cc1
IC50 (Protein skinhead-1): > 100 µM (inactive) | EC50 [2]: 71.5 µM (active) | EC50 [3]: > 120 µM (not active)

O=C(COC(=O)c1cccc(S(=O)(=O)N2CCOCC2)c1)Nc1nc(-c2ccccc2Cl)cs1
AC50 (Cytochrome P450 3A4): 11.2 µM (inconclusive) | AC50 (Cytochrome P450 1A2): 8.91 µM (inconclusive)

O=C(NC1(C(F)(F)F)NC(=O)N(Cc2cccnc2)C1=O)c1ccccc1 (stereo unspecified)
EC50 [4]: > 120 µM (not active) | AC50 (Cytochrome P450 3A4): 0.891 µM (inconclusive) | EC50 [2]: > 120 µM (not active) | EC50 [3]: > 120 µM (not active) | AC50 (Cytochrome P450 2C9): 17.8 µM (inconclusive)

Cc1c(C)n(C)c2ccc(C(=O)NCCN3CCOCC3)cc12
IC50 (Protein skinhead-1): > 100 µM (inactive)

O=C(NCc1nnc(S)n1-c1ccc(F)cc1)c1ccc(S(=O)(=O)N2CCOCC2)cc1
IC50 (Protein skinhead-1): > 100 µM (inactive)

CN(Cc1ccc(-n2cccn2)cc1)C(=O)c1cnn2c1NC(c1ccco1)CC2C(F)(F)F (stereo unspecified)
EC50 [4]: > 120 µM (not active) | EC50 [2]: > 120 µM (not active) | EC50 [3]: 31.5 µM (active)

O=C(CSc1nnnn1-c1ccccc1)NCc1cccs1
AC50 (Cytochrome P450 1A2): 31.6 µM (inconclusive)

Cn1cccc1C(=O)N1CCC2(CCCN(Cc3ccc(C#N)cc3)C2)CC1
AC50 (Cytochrome P450 3A4): 15.8 µM (inconclusive) | AC50 (Cytochrome P450 1A2): 12.6 µM (inconclusive)

Brc1ccc(CSc2nnc(-c3cccnc3)o2)cc1
IC50 (Protein skinhead-1): 54.5 µM (inactive)

CCOc1c2ccc(C(=O)NCc3ccc(OC(F)(F)F)cc3)cc2nn1CC
AC50 (Cytochrome P450 2C19; read-out: AC50): 39.8 µM (inconclusive) | AC50 (Cytochrome P450 2D6): 25.1 µM (inconclusive) | AC50 (Cytochrome P450 1A2): 14.1 µM (inconclusive) | AC50 (Cytochrome P450 2C9): 39.8 µM (inconclusive)

N#C/C=C1\n2c(nc3ccccc32)OC12CCCCC2
EC50 [4]: > 120 µM (not active) | EC50 [2]: > 120 µM (not active) | EC50 [3]: > 120 µM (not active)

CC(=O)N1CCC2(CCCN(Cc3cc(C(F)(F)F)cc(C(F)(F)F)c3)C2)CC1
AC50 (Cytochrome P450 3A4): 15.8 µM (inconclusive) | AC50 (Cytochrome P450 2D6): 39.8 µM (inconclusive)

Cc1cc(C)n(CC(O)Cn2c(C)c(C)c3ccccc32)n1 (stereo unspecified)
IC50 (Protein skinhead-1): > 100 µM (inactive)

COc1ccc(C(=O)N2CCC3(CC2)CN(Cc2ccc(C#N)cc2)C3)cc1
AC50 (Cytochrome P450 3A4): 0.631 µM (inconclusive) | AC50 (Cytochrome P450 2D6): 12.6 µM (inconclusive)

Nc1nnnn1CCO
AC50 (Cytochrome P450 1A2): 6.31 µM (inconclusive)

O=C(Nc1ccccc1N1CCOCC1)c1ccc(S(=O)(=O)NCc2ccco2)cc1
EC50 [5]: > 150 µM (inactive)

COC(=O)CCC(=O)NNC(=O)c1ccc(Br)cc1
AC50 (Cytochrome P450 1A2): 11.2 µM (inconclusive)

O=C1COc2ccc(OCc3ccc(F)cc3)cc21
AC50 (Cytochrome P450 1A2): 7.08 µM (inconclusive)

CC(=O)Nc1nnc(CCN2CCCCC2)s1
AC50 (Cytochrome P450 2C19): inconclusive | AC50 (Cytochrome P450 2D6): 1.26 µM (inconclusive)

Cc1ccc(CSc2nc3c(c(=O)[nH]c(=O)n3C)n2CCC(C)C)cc1
EC50 [4]: 24.8 µM (active) | EC50 [2]: 19.4 µM (active) | EC50 [3]: 16.2 µM (active)

CCNc1ncc2nc(-c3cccc(C#N)c3)c(=O)n(C)c2n1
AC50 (Cytochrome P450 3A4): 31.6 µM (inconclusive) | AC50 (Cytochrome P450 2D6): 2 µM (inconclusive)

Cc1cnc(CNc2ncnc3ccc(-c4ccccc4C(F)(F)F)cc23)cn1
AC50 (Cytochrome P450 2C19; read-out: AC50): 20 µM (inconclusive) | AC50 (Cytochrome P450 2D6): 25.1 µM (inconclusive)

O=C(NCC1CCCO1)c1nn2c(c1Cl)NC(c1ccc(F)cc1)CC2C(F)(F)F (stereo unspecified)
AC50 (Cytochrome P450 3A4): 14.1 µM (inconclusive) | AC50 (Cytochrome P450 1A2): 12.6 µM (inconclusive)

Cc1ccc(S(=O)(=O)N2CCCC(C(=O)NCCCN3CCCCC3C)C2)cc1 (stereo unspecified)
AC50 (Cytochrome P450 2C19): inconclusive | AC50 (Cytochrome P450 2D6): 17.8 µM (inconclusive)

O=C(OCCN1CCOCC1)C1(c2ccccc2)CCCCC1
AC50 (Cytochrome P450 2C19; read-out: AC50): 6.31 µM (inconclusive) and 10 µM (inconclusive) | AC50 (Cytochrome P450 2D6): 12.6 µM (inconclusive) and 6.31 µM (inconclusive) | AC50 (Cytochrome P450 1A2): 31.6 µM (inconclusive) | AC50 (Cytochrome P450 2C9): 10 µM (inconclusive) and 15.8 µM (inconclusive)

CN(C)c1ccc(/N=C/c2cccn2C)cc1
EC50 [5]: 25.9 µM (active)
